Earlier results, collected in patent publication US10744110B2, “Methods of treating lung cancer” (Abraxis BioScience, LLC, priority 2013, dated 2020).

Test system: NSCLC
Details: single agent

CCC1=C[C@@H]2CN(C1)Cc1c([nH]c3ccccc13)[C@@](C(=O)OC)(c1cc3c(cc1OC)N(C)[C@H]1[C@@](O)(C(=O)OC)[C@H](OC(C)=O)[C@]4(CC)C=CCN5CC[C@]31[C@@H]54)C2 [vinorelbine]
response rate (RR): 29.4%
